Values joined by “and” are separate entries in the source; they are usually repeats but may differ in a detail not shown here. Identical values can stand only once. Inconclusive results and toxic doses are left out. No stated cut-off is given here; in the data, active means T/C of 150% or more; inactive means T/C below 125%.
Test system: L1210 leukemia ip in BDF1 mice, survival T/C
Assay: NCI In Vivo Anticancer Drug Screen. Data for tumor model L1210 Leukemia (intraperitoneal) in B6D2F1 (BDF1) mice
Details: endpoint: mean survival time, higher = longer survival
In short: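 In this screen, tumor-bearing mice given compound are compared to those given vehicle, and their survival values are reported as a treated-to-control quotient.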

[1] = dose: 100.0 mg/kg/injection, schedule: Q01DX009 (ip), vehicle: Klucel (hydroxypropylcellulose) (HPC)
[2] = dose: 100.0 mg/kg/injection, schedule: Q04DX003 (ip), vehicle: Klucel (hydroxypropylcellulose) (HPC)
[3] = dose: 200.0 mg/kg/injection, schedule: Q01DX009 (ip), vehicle: Klucel (hydroxypropylcellulose) (HPC)
[4] = dose: 200.0 mg/kg/injection, schedule: Q04DX003 (ip), vehicle: Klucel (hydroxypropylcellulose) (HPC)
[5] = dose: 400.0 mg/kg/injection, schedule: Q01DX009 (ip), vehicle: Klucel (hydroxypropylcellulose) (HPC)
[6] = dose: 400.0 mg/kg/injection, schedule: Q04DX003 (ip), vehicle: Klucel (hydroxypropylcellulose) (HPC)
[7] = dose: 100.0 mg/kg/injection, schedule: Q01DX001 (ip), vehicle: saline
[8] = dose: 200.0 mg/kg/injection, schedule: Q01DX001 (ip), vehicle: saline
[9] = dose: 400.0 mg/kg/injection, schedule: Q01DX001 (ip), vehicle: saline
[10] = dose: 50.0 mg/kg/injection, schedule: Q01DX009 (ip), vehicle: Klucel (hydroxypropylcellulose) (HPC)
[11] = dose: 50.0 mg/kg/injection, schedule: Q01DX009 (ip), vehicle: saline
[12] = dose: 100.0 mg/kg/injection, schedule: Q01DX009 (ip), vehicle: saline
[13] = dose: 100.0 mg/kg/injection, schedule: Q04DX003 (ip), vehicle: saline
[14] = dose: 200.0 mg/kg/injection, schedule: Q04DX003 (ip), vehicle: saline

Measured: T/C

CCCCOC(=O)C(C)OC(=O)CCC (configuration not stated)
inactive: [1] 102 % of control | [2] 99 % of control | [3] 90 % of control | [4] 107 % of control | [5] 102 % of control | [6] 102 % of control

O=S(=O)(c1ccc(Nc2nnc(-c3ccccc3)s2)cc1)N1CCCCC1
inactive: [1] 96 % of control | [3] 89 % of control | [5] 86 % of control

CC(C)C1CC2CCC3C(C)(C(=O)O)CCCC3(C)C2CC1CO (configuration not stated)
inactive: dose: 100.0 mg/kg/injection, schedule: Q04DX003 (ip), vehicle: saline with Tween-80 92 % of control | dose: 200.0 mg/kg/injection, schedule: Q04DX003 (ip), vehicle: saline with Tween-80 92 % of control | dose: 400.0 mg/kg/injection, schedule: Q04DX003 (ip), vehicle: saline with Tween-80 93 % of control

CCCCNC(=O)Nc1cccc(C)c1C
inactive: [1] 101 % of control | [2] 95 % of control | [3] 94 % of control | [4] 93 % of control | [5] 93 % of control | [6] 97 % of control

Cc1ccc2[nH]c(CC#N)cc2c1
inactive: dose: 100.0 mg/kg/injection, schedule: Q04DX002 (ip), vehicle: Klucel (hydroxypropylcellulose) (HPC) 104 % of control | dose: 200.0 mg/kg/injection, schedule: Q04DX002 (ip), vehicle: Klucel (hydroxypropylcellulose) (HPC) 93 % of control | dose: 400.0 mg/kg/injection, schedule: Q04DX002 (ip), vehicle: Klucel (hydroxypropylcellulose) (HPC) 100 % of control

O=C1c2cccc3cccc(c23)C(=O)N1CCCCCCCCCCN1C(=O)c2cccc3cccc(c23)C1=O
inactive: dose: 50.0 mg/kg/injection, schedule: Q01DX009 (ip), vehicle: gum acacia 93 % of control | dose: 100.0 mg/kg/injection, schedule: Q01DX009 (ip), vehicle: gum acacia 94 % of control and 89 % of control | dose: 100.0 mg/kg/injection, schedule: Q04DX003 (ip), vehicle: gum acacia 93 % of control | dose: 200.0 mg/kg/injection, schedule: Q04DX003 (ip), vehicle: gum acacia 86 % of control | dose: 400.0 mg/kg/injection, schedule: Q01DX009 (ip), vehicle: gum acacia 89 % of control | dose: 400.0 mg/kg/injection, schedule: Q04DX003 (ip), vehicle: gum acacia 90 % of control

Cc1cccc2sc(=S)[nH]c12
inactive: dose: 37.5 mg/kg/injection, schedule: Q04DX003 (ip), vehicle: Klucel (hydroxypropylcellulose) (HPC) 107 % of control | dose: 75.0 mg/kg/injection, schedule: Q01DX009 (ip), vehicle: Klucel (hydroxypropylcellulose) (HPC) 92 % of control | dose: 75.0 mg/kg/injection, schedule: Q04DX003 (ip), vehicle: Klucel (hydroxypropylcellulose) (HPC) 101 % of control | dose: 150.0 mg/kg/injection, schedule: Q01DX009 (ip), vehicle: Klucel (hydroxypropylcellulose) (HPC) 92 % of control | dose: 150.0 mg/kg/injection, schedule: Q04DX003 (ip), vehicle: Klucel (hydroxypropylcellulose) (HPC) 93 % of control | dose: 300.0 mg/kg/injection, schedule: Q01DX009 (ip), vehicle: Klucel (hydroxypropylcellulose) (HPC) 93 % of control | dose: 300.0 mg/kg/injection, schedule: Q04DX003 (ip), vehicle: Klucel (hydroxypropylcellulose) (HPC) 95 % of control

ClCCC1OCCCO1
inactive: dose: 50.0 mg/kg/injection, schedule: Q01DX009 (ip), vehicle: saline + alcohol 96 % of control | dose: 100.0 mg/kg/injection, schedule: Q01DX009 (ip), vehicle: saline + alcohol 100 % of control | dose: 200.0 mg/kg/injection, schedule: Q01DX009 (ip), vehicle: saline + alcohol 96 % of control

COc1ccccc1C1OC1C(=O)O (configuration not stated)
inactive: [7] 102 % of control | [8] 94 % of control | [9] 103 % of control

CCCCCCCCN1CCC(c2cccc(O)c2)C(C(=O)CC)C1 (configuration not stated)
inactive: dose: 6.0 mg/kg/injection, schedule: Q01DX009 (ip), vehicle: Klucel (hydroxypropylcellulose) (HPC) 94 % of control and 102 % of control | dose: 12.0 mg/kg/injection, schedule: Q01DX009 (ip), vehicle: Klucel (hydroxypropylcellulose) (HPC) 94 % of control | [10] 87 % of control

O=CC(OC(=O)c1ccccc1)C(OC(=O)c1ccccc1)C(CO)OC(=O)c1ccccc1 (configuration not stated)
inactive: dose: 100.0 mg/kg/injection, schedule: Q01DX001 (ip), vehicle: Klucel (hydroxypropylcellulose) (HPC) 106 % of control | dose: 200.0 mg/kg/injection, schedule: Q01DX001 (ip), vehicle: Klucel (hydroxypropylcellulose) (HPC) 95 % of control | dose: 400.0 mg/kg/injection, schedule: Q01DX001 (ip), vehicle: Klucel (hydroxypropylcellulose) (HPC) 98 % of control

O=C(O)/C=C/C(=O)Nc1cc(Cl)cc2c1-c1c(Cl)cc(Cl)cc1C2=O
inactive: [11] 94 % of control | [12] 94 % of control | [2] 98 % of control | dose: 200.0 mg/kg/injection, schedule: Q01DX009 (ip), vehicle: saline 96 % of control | [4] 98 % of control

CC(=O)NC1CON=C1OS(=O)(=O)c1ccc(C)cc1 (configuration not stated)
inactive: dose: 100.0 mg/kg/injection, schedule: Q01DX001 (ip), vehicle: saline with Tween-80 89 % of control | dose: 200.0 mg/kg/injection, schedule: Q01DX001 (ip), vehicle: saline with Tween-80 89 % of control | dose: 400.0 mg/kg/injection, schedule: Q01DX001 (ip), vehicle: saline with Tween-80 100 % of control

CC(=O)OC1CC2C=CC1C2 (configuration not stated)
inactive: dose: 100.0 mg/kg/injection, schedule: Q01DX009 (ip), vehicle: saline with Tween-80 93 % of control | dose: 200.0 mg/kg/injection, schedule: Q01DX009 (ip), vehicle: saline with Tween-80 91 % of control | dose: 400.0 mg/kg/injection, schedule: Q01DX009 (ip), vehicle: saline with Tween-80 86 % of control

CC(C)n1cc2c(N)ncnc2n1
inactive: [11] 117 % of control | [7] 96 % of control | [12] 104 % of control | [13] 103 % of control | [8] 104 % of control | [14] 108 % of control | [9] 100 % of control | dose: 400.0 mg/kg/injection, schedule: Q04DX003 (ip), vehicle: saline 100 % of control

Cc1nc2sc3c(c2c(=O)[nH]1)CCCC3
inactive: dose: 50.0 mg/kg/injection, schedule: Q01DX001 (ip), vehicle: saline sonified 122 % of control | dose: 100.0 mg/kg/injection, schedule: Q01DX001 (ip), vehicle: saline sonified 103 % of control | dose: 200.0 mg/kg/injection, schedule: Q01DX001 (ip), vehicle: saline sonified 101 % of control

C[C@H](CCC(=O)O)[C@H]1CC[C@H]2[C@@H]3CCC4=C(O)C(=O)CC[C@]4(C)[C@H]3CC(=O)[C@]12C
inactive: dose: 100.0 mg/kg/injection, schedule: Q01DX001 (sc), vehicle: steriod suspending solution 101 % of control | dose: 200.0 mg/kg/injection, schedule: Q01DX001 (sc), vehicle: steriod suspending solution 98 % of control | dose: 400.0 mg/kg/injection, schedule: Q01DX001 (sc), vehicle: steriod suspending solution 103 % of control

C=C(Br)CNC(C)=O
inactive: dose: 12.5 mg/kg/injection, schedule: Q01DX009 (ip), vehicle: saline 113 % of control | dose: 25.0 mg/kg/injection, schedule: Q01DX009 (ip), vehicle: saline 106 % of control | [11] 98 % of control | [12] 120 % of control | [13] 113 % of control | [14] 113 % of control

O=[N+]([O-])c1cccc(S(=O)(=O)SC(Cl)(Cl)Cl)c1
inactive: dose: 25.0 mg/kg/injection, schedule: Q04DX003 (ip), vehicle: saline 96 % of control

Cc1ccc(SC2CC3CC2C2COCC32)cc1 (configuration not stated)
inactive: [10] 98 % of control | [1] 98 % of control | [2] 90 % of control | [4] 98 % of control
